Read-outs that look alike come from different tables or passages of the source. Non-standard residues stand in square brackets, D forms with d. Residues, ends and D or L forms follow the SMILES beside them. 1Nal = N[C@@H](Cc1cccc2ccccc12)C(=O)O; 2Nal = N[C@@H](Cc1ccc2ccccc2c1)C(=O)O; β3hI = CC[C@H](C)[C@H](N)CC(=O)O; β3hR = N=C(N)NCCC[C@H](N)CC(=O)O; Nle = CCCC[C@H](N)C(=O)O; Aib = CC(C)(N)C(=O)O; βAla = NCCC(=O)O
Columns and labels:
human PTH-2 receptor = biological target: T1, human PTH-2 receptor (Homo sapiens, UniProt P49190); assay: Luciferase-based transcriptional reporter gene assay for selectivity; assay type: cell-based
T1 construct: expressed in transfected cells
T1 sequence (P49190 25-550): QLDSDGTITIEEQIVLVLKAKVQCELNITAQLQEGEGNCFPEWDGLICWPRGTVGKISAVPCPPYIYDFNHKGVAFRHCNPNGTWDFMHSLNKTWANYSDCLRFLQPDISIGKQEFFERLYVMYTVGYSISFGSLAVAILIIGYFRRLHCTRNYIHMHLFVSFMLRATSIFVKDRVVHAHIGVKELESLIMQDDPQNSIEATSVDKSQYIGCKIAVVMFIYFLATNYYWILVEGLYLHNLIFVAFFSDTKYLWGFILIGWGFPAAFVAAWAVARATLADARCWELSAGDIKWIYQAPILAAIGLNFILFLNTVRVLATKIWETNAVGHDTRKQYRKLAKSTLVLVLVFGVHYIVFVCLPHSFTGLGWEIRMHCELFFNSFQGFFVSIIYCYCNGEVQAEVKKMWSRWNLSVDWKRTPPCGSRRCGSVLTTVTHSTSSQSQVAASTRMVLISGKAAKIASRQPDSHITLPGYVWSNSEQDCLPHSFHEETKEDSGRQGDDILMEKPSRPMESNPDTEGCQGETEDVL
Procedure, shortened: (§1)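 HEK-293 cells transiently transfected with SV40-driven human PTH-1 receptor and CRE-luciferase reporter, exposed to serial compound dilutions for 4-5 h, then lysed for luciferase readout; efficacy and EC50 by non-linear regression, PTH (1-34) as internal control, n≥3. Selectivity measured in analogous human PTH-2 receptor luciferase reporter assays.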

human PTH-1 receptor = biological target: T2, human PTH-1 receptor (Homo sapiens, UniProt Q03431); assay: Reporter gene assay (CRE-luciferase) for agonist activity in transiently transfected HEK-293 cells; assay type: cell-based; settings: for hPTHR-2/hPTHR-1: selectivity for hPTH-1 receptor over hPTH-2 receptor
T2 construct: expressed in transfected cells; host or cells: HEK-293
T2 sequence (Q03431 27-593): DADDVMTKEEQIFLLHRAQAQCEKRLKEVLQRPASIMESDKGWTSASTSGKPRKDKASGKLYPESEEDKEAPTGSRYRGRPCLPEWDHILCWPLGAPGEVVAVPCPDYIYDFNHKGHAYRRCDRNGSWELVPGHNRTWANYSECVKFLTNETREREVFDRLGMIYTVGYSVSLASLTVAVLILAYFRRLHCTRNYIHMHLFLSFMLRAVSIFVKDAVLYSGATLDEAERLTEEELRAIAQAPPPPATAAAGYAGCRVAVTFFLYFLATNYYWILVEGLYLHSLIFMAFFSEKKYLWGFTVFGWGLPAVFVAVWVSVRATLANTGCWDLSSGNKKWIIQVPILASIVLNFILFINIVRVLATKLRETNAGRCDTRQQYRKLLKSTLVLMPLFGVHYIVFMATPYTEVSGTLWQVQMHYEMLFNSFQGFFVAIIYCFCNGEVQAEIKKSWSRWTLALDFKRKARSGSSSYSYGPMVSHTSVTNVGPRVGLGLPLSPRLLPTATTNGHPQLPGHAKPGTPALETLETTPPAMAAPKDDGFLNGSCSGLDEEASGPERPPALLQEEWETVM
Procedure, shortened: as §1

Row | Structure (SMILES) | EC50 (human PTH-2 receptor) [nM] | EC50 (human PTH-1 receptor) [nM] | hPTHR-2/hPTHR-1 (human PTH-1 receptor; Table 3, ratio of EC50 values) | Selectivity hPTHR-2/hPTHR-1 (human PTH-1 receptor; Table 4 comparison data, ratio of EC50 values) | EC50 (human PTH-2 receptor; Table 3, luciferase reporter gene assay, read-out: hPTHR-2 EC50) [nM] | EC50 (human PTH-1 receptor; Table 3, HEK-293 cells, CRE-luciferase, 4-5 hours exposure, read-out: hPTHR-1 EC50) [nM]
1 | CCCC[C@H](NC(=O)[C@H](CC(C)C)NC(=O)[C@H](CCC(N)=O)NC(=O)[C@@H](NC(=O)[C@H](CCC(=O)O)NC(=O)[C@H](CO)NC(=O)[C@@H](NC(=O)[C@@H](N)CO)C(C)C)[C@@H](C)CC)C(=O)N[C@@H](Cc1c[nH]cn1)C(=O)N[C@@H](CC(N)=O)C(=O)N[C@@H](CC(C)C)C(=O)NCC(=O)N[C@@H](CCCCN)C(=O)N[C@@H](Cc1c[nH]cn1)C(=O)N[C@@H](CC(C)C)C(=O)N[C@@H](CC(N)=O)C(=O)N[C@@H](CO)C(=O)N[C@H](CC(=O)N[C@@H](CCC(=O)O)C(=O)N[C@@H](CCCNC(=N)N)C(=O)N[C@H](C(=O)N[C@@H](CCC(=O)O)C(=O)N[C@@H](Cc1cccc2ccccc12)C(=O)N[C@@H](CC(C)C)C(=O)N[C@@H](CCCNC(=N)N)C(=O)N[C@@H](CCCCN)C(=O)N[C@@H](CC(C)C)C(=O)N[C@@H](CC(C)C)C(=O)N[C@@H](CCC(N)=O)C(=O)N[C@@H](Cc1c[nH]cn1)C(=O)N[C@H](C(=O)N[C@@H](Cc1c[nH]cn1)C(=O)N[C@@H](CC(N)=O)C(=O)N[C@@H](Cc1ccccc1)C(N)=O)C(C)C)C(C)C)[C@@H](C)CC [SEQ ID NO: 25, [Nle^8, β-hIle^18,1-Nal^23, Leu^27, His^30] hPTH (1-34)-NH2] (H-SVSEIQL[Nle]HNLGKHLNS[β3hI]ERVE[1Nal]LRKLLQHVHNF-NH2) | 13 | 0.18 | 72 |  |  | 
2 | CCCC[C@H](NC(=O)[C@H](CC(C)C)NC(=O)[C@H](CCC(N)=O)NC(=O)[C@@H](NC(=O)[C@H](CCC(=O)O)NC(=O)[C@H](CO)NC(=O)[C@@H](NC(=O)C(C)(C)N)C(C)C)[C@@H](C)CC)C(=O)N[C@@H](Cc1c[nH]cn1)C(=O)N[C@@H](CC(N)=O)C(=O)N[C@@H](CC(C)C)C(=O)NCC(=O)N[C@@H](CCCCN)C(=O)N[C@@H](Cc1c[nH]cn1)C(=O)N[C@@H](CC(C)C)C(=O)N[C@@H](CC(N)=O)C(=O)N[C@@H](CO)C(=O)N[C@@H](CCCNC(=N)N)CC(=O)N[C@@H](CCC(=O)O)C(=O)N[C@@H](CCCNC(=N)N)C(=O)N[C@H](C(=O)N[C@@H](CCC(=O)O)C(=O)N[C@@H](Cc1cccc2ccccc12)C(=O)N[C@@H](CC(C)C)C(=O)N[C@@H](CCCNC(=N)N)C(=O)N[C@@H](CCCCN)C(=O)N[C@@H](CC(C)C)C(=O)N[C@@H](CC(C)C)C(=O)N[C@@H](CCC(N)=O)C(=O)N[C@@H](CC(=O)O)C(=O)N[C@H](C(=O)N[C@@H](Cc1c[nH]cn1)C(=O)N[C@@H](CC(N)=O)C(=O)N[C@@H](Cc1ccccc1)C(N)=O)C(C)C)C(C)C [SEQ ID NO: 43, [Aib^1, Nle^8, β-hArg^18,1-Nal^23, Leu^27] hPTH (1-34)-NH2] (H-[Aib]VSEIQL[Nle]HNLGKHLNS[β3hR]ERVE[1Nal]LRKLLQDVHNF-NH2) | 16 | 0.05 | 312 | 312 |  | 
3 | CCCC[C@H](NC(=O)[C@H](CC(C)C)NC(=O)[C@H](CCC(N)=O)NC(=O)[C@@H](NC(=O)[C@H](CCC(=O)O)NC(=O)[C@H](CO)NC(=O)[C@@H](NC(=O)[C@@H](N)CO)C(C)C)[C@@H](C)CC)C(=O)N[C@@H](Cc1c[nH]cn1)C(=O)N[C@@H](CC(N)=O)C(=O)N[C@@H](CC(C)C)C(=O)NCC(=O)N[C@@H](CCCCN)C(=O)N[C@@H](Cc1c[nH]cn1)C(=O)N[C@@H](CC(C)C)C(=O)N[C@@H](CCCCN)C(=O)N[C@@H](CO)C(=O)N[C@H](CC(=O)N[C@@H](CCC(=O)O)C(=O)N[C@@H](CCCNC(=N)N)C(=O)N[C@H](C(=O)N[C@@H](CCC(=O)O)C(=O)N[C@@H](Cc1cccc2ccccc12)C(=O)N[C@@H](CC(C)C)C(=O)N[C@@H](CCCNC(=N)N)C(=O)N[C@@H](CCCCN)C(=O)N[C@@H](CC(C)C)C(=O)N[C@@H](CC(C)C)C(=O)N[C@@H](CCC(N)=O)C(=O)N[C@@H](CCCNC(=N)N)C(=O)N[C@H](C(=O)N[C@@H](Cc1c[nH]cn1)C(=O)N[C@@H](CCC(=O)O)C(=O)N[C@@H](Cc1ccccc1)C(N)=O)C(C)C)C(C)C)[C@@H](C)CC [SEQ ID NO: 41, [Nle^8, Lys^16, β-hIle^18,1-Nal^23, Leu^27, Arg^30, Glu^33] hPTH (1-34)-NH2] (H-SVSEIQL[Nle]HNLGKHLKS[β3hI]ERVE[1Nal]LRKLLQRVHEF-NH2) | 14 | 0.09 | 157 |  |  | 
4 | CCCC[C@H](NC(=O)[C@H](CC(C)C)NC(=O)[C@H](CCC(N)=O)NC(=O)[C@@H](NC(=O)[C@H](CCC(=O)O)NC(=O)[C@H](CO)NC(=O)[C@@H](NC(=O)C(C)(C)N)C(C)C)[C@@H](C)CC)C(=O)N[C@@H](Cc1c[nH]cn1)C(=O)N[C@@H](CO)C(=O)N[C@@H](CC(C)C)C(=O)NCC(=O)N[C@@H](CCCCN)C(=O)N[C@@H](Cc1c[nH]cn1)C(=O)N[C@@H](CC(C)C)C(=O)N[C@@H](CCCCN)C(=O)N[C@@H](CO)C(=O)N[C@H](CC(=O)N[C@@H](CCC(=O)O)C(=O)N[C@@H](CCCNC(=N)N)C(=O)N[C@H](C(=O)N[C@@H](CCC(=O)O)C(=O)N[C@@H](Cc1cccc2ccccc12)C(=O)N[C@@H](CC(C)C)C(=O)N[C@@H](CCCNC(=N)N)C(=O)N[C@@H](CCCCN)C(=O)N[C@@H](CC(C)C)C(=O)N[C@@H](CC(C)C)C(=O)N[C@@H](CCC(N)=O)C(=O)N[C@@H](CCCNC(=N)N)C(=O)N[C@H](C(N)=O)C(C)C)C(C)C)[C@@H](C)CC [SEQ ID NO: 45, [Aib^1, Nle^8, Ser^10, Lys^16, β-hIle^18,1-Nal^23, Leu^27, Arg^30] hPTH (1-31)-NH2] (H-[Aib]VSEIQL[Nle]HSLGKHLKS[β3hI]ERVE[1Nal]LRKLLQRV-NH2) | 6 | 0.09 | 72 |  |  | 
5 | CCCC[C@H](NC(=O)CCNC(=O)[C@H](CC(N)=O)NC(=O)[C@H](CC(C)C)NC(=O)[C@H](Cc1c[nH]cn1)NC(=O)[C@H](CCCCN)NC(=O)CNC(=O)[C@H](CC(C)C)NC(=O)[C@H](CC(N)=O)NC(=O)[C@H](Cc1c[nH]cn1)NC(=O)[C@H](CCCC)NC(=O)[C@H](CC(C)C)NC(=O)[C@H](CCC(N)=O)NC(=O)[C@@H](NC(=O)[C@H](CCC(=O)O)NC(=O)[C@H](CO)NC(=O)[C@@H](NC(=O)C(C)(C)N)C(C)C)[C@@H](C)CC)C(=O)N[C@@H](CCC(=O)O)C(=O)N[C@@H](CCCNC(=N)N)C(=O)N[C@H](C(=O)N[C@@H](CCC(=O)O)C(=O)N[C@@H](Cc1ccc2ccccc2c1)C(=O)N[C@@H](CC(C)C)C(=O)N[C@@H](CCCNC(=N)N)C(=O)N[C@@H](CCCCN)C(=O)N[C@@H](CCCCN)C(=O)N[C@@H](CC(C)C)C(=O)N[C@@H](CCC(N)=O)C(=O)N[C@@H](CC(=O)O)C(=O)N[C@H](C(=O)N[C@@H](Cc1c[nH]cn1)C(=O)N[C@@H](CC(N)=O)C(=O)N[C@@H](Cc1ccccc1)C(N)=O)C(C)C)C(C)C [SEQ ID NO: 13, [Aib^1, Nle^8,18, β-Ala^17,2-Nal^23] hPTH (1-34)-NH2] (H-[Aib]VSEIQL[Nle]HNLGKHLN[βAla][Nle]ERVE[2Nal]LRKKLQDVHNF-NH2; N-terminus assumed) |  |  | 213 |  | 46 | 0.22
6 | CCCC[C@H](NC(=O)CCNC(=O)[C@H](CCCCN)NC(=O)[C@H](CC(C)C)NC(=O)[C@H](Cc1c[nH]cn1)NC(=O)[C@H](CCCCN)NC(=O)CNC(=O)[C@H](CC(C)C)NC(=O)[C@H](CO)NC(=O)[C@H](Cc1c[nH]cn1)NC(=O)[C@H](CCCC)NC(=O)[C@H](CC(C)C)NC(=O)[C@H](CCC(N)=O)NC(=O)[C@@H](NC(=O)[C@H](CCC(=O)O)NC(=O)[C@H](CO)NC(=O)[C@@H](NC(=O)C(C)(C)N)C(C)C)[C@@H](C)CC)C(=O)N[C@@H](CCC(=O)O)C(=O)N[C@@H](CCCNC(=N)N)C(=O)N[C@H](C(=O)N[C@@H](CCC(=O)O)C(=O)N[C@@H](Cc1cccc2ccccc12)C(=O)N[C@@H](CC(C)C)C(=O)N[C@@H](CCCNC(=N)N)C(=O)N[C@@H](CCCCN)C(=O)N[C@@H](CC(C)C)C(=O)N[C@@H](CC(C)C)C(=O)N[C@@H](CCC(N)=O)C(=O)N[C@@H](CCCNC(=N)N)C(=O)N[C@H](C(=O)N[C@@H](Cc1c[nH]cn1)C(=O)N[C@@H](CCC(=O)O)C(=O)N[C@@H](CCC(=O)O)C(N)=O)C(C)C)C(C)C [SEQ ID NO: 6, [Aib^1, Nle^8,18, Ser^10, Lys^16, β-Ala^17,1-Nal^23, Leu^27, Arg^30, Glu^33, Glu^34] hPTH (1-34)-NH2] (H-[Aib]VSEIQL[Nle]HSLGKHLK[βAla][Nle]ERVE[1Nal]LRKLLQRVHEE-NH2; N-terminus assumed) | 7 | 0.03 | 267 |  |  | 

— patent US20110195900A1, “PEPTIDIC PTH RECEPTOR AGONISTS” (FERRING B.V., priority 2008, published 2011)
